Test [1] has as its target T1, Peroxisome proliferator-activated receptor gamma (Homo sapiens, UniProt P37231).
T1 sequence (P37231 whole entry): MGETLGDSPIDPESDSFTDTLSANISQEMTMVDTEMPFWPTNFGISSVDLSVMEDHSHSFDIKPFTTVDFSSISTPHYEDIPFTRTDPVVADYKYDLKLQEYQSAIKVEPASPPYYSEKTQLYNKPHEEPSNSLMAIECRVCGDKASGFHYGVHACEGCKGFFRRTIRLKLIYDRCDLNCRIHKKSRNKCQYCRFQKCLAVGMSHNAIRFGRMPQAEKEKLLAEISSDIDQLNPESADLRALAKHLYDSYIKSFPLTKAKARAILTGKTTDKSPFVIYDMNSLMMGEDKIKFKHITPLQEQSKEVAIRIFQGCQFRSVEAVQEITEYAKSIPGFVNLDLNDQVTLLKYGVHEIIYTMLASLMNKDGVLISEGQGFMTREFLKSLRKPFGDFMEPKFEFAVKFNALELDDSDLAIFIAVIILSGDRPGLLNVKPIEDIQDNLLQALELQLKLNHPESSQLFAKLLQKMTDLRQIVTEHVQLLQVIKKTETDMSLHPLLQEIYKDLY
Nature of the test: Partial agonist activity at GAL4 DBD-fused PPARgamma LBD (unknown origin) expressed in pG5 luc and pBIND transfected HEK293T cells assessed as transcriptional activation incubated for 12 hrs by fluorescence based luciferase assay.

Test [2] concerns the target T1, Peroxisome proliferator-activated receptor gamma. Briefly: Binding affinity to GAL4-DBD-fused PPARgamma ligand binding domain (unknown origin) expressed in HEK293T cells by spectra-fluorophotometry analysis.
The target of test [3] is T2, Prostaglandin G/H synthase 2 (Homo sapiens, UniProt P35354).
T2 sequence (P35354 whole entry): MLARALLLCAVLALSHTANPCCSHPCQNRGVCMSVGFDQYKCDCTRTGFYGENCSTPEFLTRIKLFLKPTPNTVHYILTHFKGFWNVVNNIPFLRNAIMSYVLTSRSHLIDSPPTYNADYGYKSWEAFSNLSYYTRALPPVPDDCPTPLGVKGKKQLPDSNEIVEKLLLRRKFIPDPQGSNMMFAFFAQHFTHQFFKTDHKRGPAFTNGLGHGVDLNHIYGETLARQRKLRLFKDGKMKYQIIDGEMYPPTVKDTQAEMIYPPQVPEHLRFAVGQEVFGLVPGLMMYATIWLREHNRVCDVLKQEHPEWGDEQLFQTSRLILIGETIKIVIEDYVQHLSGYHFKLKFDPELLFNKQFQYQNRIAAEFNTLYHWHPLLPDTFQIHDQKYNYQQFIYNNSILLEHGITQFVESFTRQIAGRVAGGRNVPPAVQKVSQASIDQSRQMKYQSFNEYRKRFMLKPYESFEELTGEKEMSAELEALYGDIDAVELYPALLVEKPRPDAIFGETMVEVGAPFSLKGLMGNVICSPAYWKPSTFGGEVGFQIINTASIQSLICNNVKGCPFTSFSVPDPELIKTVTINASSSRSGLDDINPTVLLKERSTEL

Consider `CC1=C(CC(=O)O)c2cc(F)ccc2/C1=C\c1ccc([S+](C)[O-])cc1` (configuration not stated), for which the EC50 in test [1] was 22.7 µM. Also, the Kd in test [2] was more than 100 µM. The matching figures for `COc1cccc(/C=C2/C(C)=C(CC(=O)O)c3cc(F)ccc32)c1`: 5.3 µM and 2.46 µM. The like results for `CC1=C(CC(=O)O)c2cc(F)ccc2/C1=C\c1ccc(C(C)C)cc1` were, in that order, more than 50 µM and more than 100 µM. The like results for `CC1=C(CC(=O)O)c2cc(F)ccc2/C1=C\c1ccc(Oc2ccccc2)cc1` were, in that order, more than 50 µM and more than 100 µM. As for `CC1=C(CC(=O)O)c2ccccc2/C1=C/c1cccc(C)c1`, in test [1], the EC50 was more than 50 µM. Further, in test [2], the Kd was more than 100 µM. The matching figures for `CC1=C(CC(=O)O)c2ccccc2/C1=C\c1cccc(C)c1`: more than 50 µM and more than 100 µM. In test [3], `CC1=C(CC(=O)O)c2cc(F)ccc2/C1=C\c1cccc(OCc2ccccc2)c1` came in with a 50% inhibitory concentration (IC50) of 286 µM.

Turning to `CC1=C(CC(=O)O)c2cc(F)ccc2/C1=C\c1ccc(OCc2ccccc2)cc1`, the concentration giving a half-maximal response (EC50) in test [1] is more than 50 µM. Besides, in test [2], the Kd is more than 100 µM. As to `CC1=C(CC(=O)O)c2cc(F)ccc2/C1=C\c1ccc(F)cc1`, the EC50 in test [1] turned out to be 11.7 µM. Also, binding in test [2] was put at a Kd of 6.67 µM.

The term EC50 denotes the concentration giving half of the maximal effect. As usually defined, the Kd is the concentration at which binding is half-saturated. A high value points to lower affinity. By IC50 is commonly meant the concentration that gives 50% inhibition. Higher therefore signals weaker potency.

The record behind these values is ChEMBL document CHEMBL4825694 (Eur J Med Chem, 2021).
